Assay results reported in ChEMBL document CHEMBL1130428, “Design, synthesis, and cocrystal structure of a nonpeptide Src SH2 domain ligand” (J Med Chem, 1997).

Molecular target: Tyrosine-protein kinase transforming protein Src (Rous sarcoma virus)
Experiment: Inhibition of [125I]phosphopeptide binding to Src SH2 domain.

SMILES	IC50 [µM]
CC[C@H](C)[C@H](NC(=O)[C@H](CCC(=O)O)NC(=O)[C@H](CCC(=O)O)NC(=O)[C@@H](CC(=O)O)Cc1ccc(OP(=O)(O)O)cc1)C(=O)N[C@@H](CCC(=O)O)C(=O)O	0.4
CN(CCCC1CCCCC1)C(=O)[C@H](CCC(=O)O)NC(=O)NCc1ccc(OP(=O)(O)O)cc1	12
